What is called melting point is the temperature of the solid-liquid transition.

The results in this text go back to a melting point compilation (Tetko et al.; mined from patent text by program, amines drawn as free bases though some values may be those of a salt).

In turn, `COc1cc(C=O)cc2c(C)c(C)oc12` yielded a melting point of 80 to 81 °C.
Under `O=C1OC(CCOc2ccc3oc4ccccc4c3c2)C(O)=C1O` (configuration not stated) stands 191 to 192 °C; under `O=c1[nH]c2cc3c(cc2nc1-c1ccccc1)OC(F)(F)O3`, 291 to 292 °C; under `CC1=C(C(O)c2ccc3c(c2)CCN(C(N)=O)C3)C(C)(C)CCC1` (configuration not stated), 88.3 to 89 °C.
Under `COc1ccc(C(=O)NC(=O)NC2CN3CCC2CC3)cc1` (configuration not stated) stands 166 to 168 °C; under `Cc1ccc(Cn2c(=O)cc(C(C)C(=O)O)c3cc(C)ccc32)cc1` (configuration not stated), 188 to 190 °C.
As for `CC1(c2ccccc2)CCC(=O)CC1`, the melting point fell in the range of 48 to 50 °C.
`COc1ccc(NN)cc1F` displayed a melting point of 46 to 50 °C.
Under `Cc1cc(C)c2c(c1C)OC1(CCN(C)CC1)C2c1ccc(C(C)C)cc1` (configuration not stated) stands 63 to 64 °C; under `Cc1cc(F)ccc1Nc1nc(N(C)c2ccccc2)c2cc(OCCCN(C)C)ccc2n1`, 103 to 104 °C.
Compound `CCOC(=O)C1=C[C@@H](OC(CC)CC)[C@@H](NC(C)=O)[C@H](N=[N+]=[N-])[C@@H]1O` returned a melting point of 112 to 115 °C.
Under `Cc1nnc2n1-c1sc(CCc3ccccc3)cc1C(c1ccccc1Cl)=NC2` stands 106 to 108 °C.
Regarding `CN(C)C(=O)c1c(-c2ccc3ccccc3c2)ccc2ccccc12`, the melting point lay within 168 to 169 °C.
For `O=C1C(CCO)Oc2cc(F)ccc2N1Cc1cccc(F)c1` (configuration not stated) the value was 78 to 79 °C.
Under `COc1c(Cl)ccnc1CO` stands 64 to 66 °C; under `COC1CC(NC(=O)C(F)(F)F)C(OC)C(C)O1` (configuration not stated), 55 to 60 °C.
In the case of `CCc1c([N+](=O)[O-])c(C(N)=O)nn1CCOC`, the melting point turned out to be 140 °C.
For `Cc1cc2c(cc1C(=O)c1ccc(C(=O)O)cc1)C1(C)C3(C)CCC(C3)C1(C)O2` (configuration not stated) the value was 238 to 239 °C.
For `COc1ccc(S(=O)O)cc1` the value was 173 to 174 °C.
For `COc1ccc(C=CC(=O)Oc2cc3c(cc2OC)CC2c4cc(OC)c(OC)cc4CCN2C3)cc1OC` (configuration not stated) the value was 224 to 225 °C.
`COc1cc(CCCC2OC(=O)NC2=O)ccc1OCc1coc(-c2ccccc2)n1` (configuration not stated) yielded a melting point of 134 to 135 °C.
For `N#Cc1ccccc1C#CCOCCn1cnc2c(N)nc3ccccc3c21` the value was 180 to 183 °C; for `CN(C)C(=O)[C@@H]1C[C@H]1C(=O)c1c[nH]c2ccc(F)cc12` (relative stereo), 239 to 241 °C.
For `O=C1c2ccccc2CN1CCOc1ccc(CO)cc1` the value was 106 to 107 °C; for `CC(C)(CO)NC(=O)c1nn(C2CCCCO2)cc1NC(=O)c1ccccn1` (configuration not stated), 194 to 195 °C; for `CC1(CC(=O)O)OCCc2nc(-c3ccccc3)sc21` (configuration not stated), 143 to 145 °C.
The compound `CC(=O)c1ccc(-n2c(-c3sc(NC(=O)c4ccccc4)nc3-c3ccccc3)nc3ccccc3c2=O)cc1` displayed a melting point of 250 to 252 °C.
Under `CN(C)CCNc1ccc(S(C)(=O)=O)cc1[N+](=O)[O-]` stands 130 to 131 °C.
As for `C#CCNC(=O)N1CC(c2cccc(C(F)(F)F)c2)C1`, the melting point stood at 121 °C.
For `COc1cc(CN2CCN(c3ccccc3C)CC2)cc(OC)c1OC` the value was 89 °C; for `COC(=O)c1ccccc1-n1c(CCl)nc2cccc(Cl)c2c1=O`, 177 to 178 °C.
As to `CCCc1cn(C(C)(C)C(=O)N(C)C)nc1-c1ccccc1Cl`, the melting point was in the range of 64 to 66 °C.
Compound `CC(c1cccnc1)N(c1ccc(F)cc1)S(C)(=O)=O` (configuration not stated) came in with a melting point of 82 to 85 °C.
For `COc1cc(Cc2n[nH]c3c2c(=O)n(-c2ccccc2)c2ncccc32)cc(OC)c1` the value was 258 to 259 °C; for `O=S(=O)(c1ccc(O)cc1)N1CCCC1`, 122 to 125 °C.
As for `N#Cc1ccc2[nH]c(O)c(-c3ccc(CN4CCOCC4)cn3)c2c1`, the melting point fell in the range of 228 to 230 °C.
Under `CC(=O)OC1CCC2(C)C(=CC=C3C2CCC2(C)C(C(C)CC#CC(C)(C)OC(C)=O)=CCC32)C1` (configuration not stated) stands 98 to 101 °C.
Under `CCOP(=O)(/C=C/c1cn(-c2ccccc2)nc1OCc1ccc(OCc2nc(-c3ccco3)oc2C)cc1)OCC` stands 131 to 132 °C.
Under `COCc1c(CNS(=O)(=O)c2cccc(Cl)c2)nn(-c2ccc(Cl)cc2Cl)c1-c1ccc(Cl)cc1` stands 154 °C; under `O=C(O)C(Cl)(Cl)CCCCCCCCCCCCSc1ccccc1`, 74 °C.
For the compound `CC(=O)C(=O)NCc1nnc(C)n1-c1cc(Cl)cc(C(=O)c2ccccc2Cl)c1`, the melting point fell in the range of 178 to 180 °C.
In turn, `COc1ccc(CS(=O)(=O)/C(=C/c2ccc(Br)cc2)C(=O)c2ccc(Br)cc2)cc1` came in with a melting point of 146 to 150 °C.
For `CO[C@@H]1[C@@H](OC)[C@H](C)O[C@@H](OC(=O)Nc2ccc(-c3ncn(-c4ccc(OC(F)(F)F)cc4)n3)cc2)[C@@H]1OC` the value was 186 to 188 °C.
As for `CCOC(=O)Cc1c(-c2ccccc2)c2cc(C)c(Cl)cc2oc1=O`, the melting point was 132 to 133 °C.
Take `CCOC(=O)c1[nH]c2c(c1O)CCCC2`: the melting point lay in the range of 94 to 95 °C.
Regarding `OCC1OC(n2cnc3c(NCC4(c5cccs5)CCC4)ncnc32)C(O)C1O` (configuration not stated), the melting point lay within 84 to 92 °C.
As for `CC(CN1CCCC1)N1c2ccccc2Sc2ccc(C(N)=S)cc21` (racemic), the melting point was determined as 150 °C.
`O=C(O)CCCCc1cccc(-c2nc(=O)c3ccccc3s2)n1`: the melting point worked out at 162 °C.
`Cc1cc(C(=O)c2ccc(Cl)cc2)ccc1[N+](=O)[O-]` yielded a melting point of 105 to 108 °C.
For `NC1([C@@H]2CCN(c3ccc4c(=O)c(C(=O)O)cn([C@@H]5C[C@@H]5F)c4c3Cl)C2)CC1` the value was 128 to 130 °C; for `O=C(O)c1cccc(C(c2cc(F)ccc2F)S(=O)(=O)c2ccc(Cl)cc2)n1` (configuration not stated), 200 to 201 °C; for `CCNC(=O)Nc1nc2cc(-c3cccnc3)cc(-c3cccc(OC)n3)c2s1`, 300 °C.
Under `COc1ccc2cc([C@H](C)C(=O)NNC(=O)CCCO)ccc2c1` stands 149 to 151 °C; under `CCOc1ccc(N2CCN(c3c(C)c4c(c(OC)c3C)OC(C)C4)CC2)cc1` (configuration not stated), 117 to 119 °C; under `CCCCNC(=S)Nc1ccc(NNC=O)c(OC)c1`, 130 to 132 °C.
`Nc1nc2ccc(C(O)C(CO)N3CCC(Cc4ccccc4)CC3)cc2s1` (configuration not stated) yielded a melting point of 155 to 157 °C.
`CN(C)C(=O)COC(=O)c1cc(S(N)(=O)=O)c(Cl)cc1NCc1ccco1` came in with a melting point of 193 to 194 °C.
`CCOc1nc(O)cc(CCl)n1`: the melting point lay within 159 to 161 °C.
For `OC(c1cn(C(c2ccccc2)(c2ccccc2)c2ccccc2)cn1)c1cc(Cl)cc2c1OCOC2` (configuration not stated), the melting point fell in the range of 233 to 235 °C.
In the case of `CCOC(=O)C(Nc1ccc(C(=O)OC)cc1)C(=O)OCC`, the melting point fell in the range of 66 to 69 °C.
For `CNC(=O)ON=C1N=C(c2ccc(Cl)cc2)C(C)(C)S1` the value was 147 to 149 °C; for `CCCN(CCC)C(=O)n1cnc(S(=O)CCC)n1` (configuration not stated), 50 to 52 °C; for `CCC(=O)NS(=O)(=O)c1ccc(C2=C(c3ccccc3)C(=O)C(C)(C)O2)cc1Cl`, 191 to 192 °C.
For `CCCCC1(CCCC)CS(=O)(=O)c2ccc(N(C)C)cc2C(c2ccc(OCc3ccc(CN(CC(=O)O)CC(=O)O)cc3)cc2)C1O` (configuration not stated) the value was 175 °C; for `CCCCCCC(=O)Oc1cc(-c2nc3ccccc3[nH]c2=O)cc([N+](=O)[O-])c1OC(=O)CCCCCC`, 186 to 188 °C; for `O=C(O)Cc1cc(C(=O)c2ccccc2)cc(Cl)c1O`, 131 °C.
For `Cc1ccc2c(=O)c(S(=O)(=O)Cl)cn(C)c2c1` the value was more than 300 °C; for `Cc1ccc(-c2occc2C(N)=O)cc1`, 174 °C.
`CCCCCCCCCc1cc(C=CC(=O)N2CCN(c3ccc(NC(=N)c4cccs4)cc3)CC2)cc(CCCCCCCCC)c1O` yielded a melting point of 103 to 105 °C.
As to `Cc1c2c(cn1C)N(C)C(=O)C(OC(=O)c1ccccc1)N=C2c1ccccc1Cl` (configuration not stated), the melting point is 228 to 229 °C.
The compound `CN1CCC2=C(C=CCC2)C(N)C1=O` (configuration not stated) registered a melting point of 69 to 81 °C.
For `CCn1c(C(O)(c2ccccc2)c2ccccc2)nc(-c2ccncc2)c1-c1ccc(Cl)cc1` the value was 222 to 223 °C.
Compound `COc1ccc(C2=NN(Cc3cccc(C(=O)O)c3)C(=O)[C@H]3CCCC[C@@H]23)cc1OC` (relative stereo) gave a melting point of 133 to 136 °C.
For `COC(=O)C1=CC(C)(C#N)N(c2cccc(Cl)c2Cl)N1` (configuration not stated) the value was 66 to 67 °C.
`Cc1cc2c(-c3ccccc3)noc2c2c1OC(C(=O)O)C2` (configuration not stated) showed a melting point of 210 to 213 °C.
Under `COc1cc(C)cc2c1C(N1CC[N+]([O-])(C(=O)Cc3ccncc3)CC1)c1ncc(Br)cc1CC2` (single isomer, unassigned; (-)) stands 111 to 116 °C; under `COc1cc(COc2nn(-c3ccccc3)cc2C=O)ccc1OCc1cn(-c2ccccn2)nc1C`, 179 to 180 °C; under `Cc1nccc2c3ccc(OCc4ccccc4)cc3n(Cc3ccccc3)c12`, 156 °C.
Compound `CCc1nc2c(N)nc3ccccc3c2n1CC1(O)CCN(C)CC1` came in with a melting point of 233 to 234 °C.
In the case of `O=C(O)CCC(CCCCNS(=O)(=O)c1ccc(Cl)cc1)CCCc1cccnc1` (configuration not stated), the melting point lay within 116 to 118 °C.
In turn, `Cc1cc(=O)n2c3c(cc(C(O)(C(F)(F)F)C(F)(F)F)cc13)CC2` showed a melting point of 337 to 338 °C.
Under `CCOC(=O)/C=C/c1cc(-c2ncc(C(F)(F)F)cc2Cl)ccc1Cl` stands 118 to 120 °C; under `COc1csc(C(=O)C2C(=O)N(C(N)=O)c3ccc(Cl)cc32)c1` (configuration not stated), 221 to 223 °C; under `CC(=O)c1ccc2c(c1)Cc1ccccc1O2`, 103 to 104 °C.
`O=C(CI)N1CCN(C(=O)CI)CC1`: the melting point fell in the range of 105 to 109 °C.
Under `O=C1CCCN1C(=O)Oc1ccccc1` stands 120 to 122 °C.
Under `CSc1ncnc(SC)c1NC(=O)CN1CCN(CCSc2nc3ccccc3o2)CC1` stands 171 to 172 °C.
